Results as given in ChEMBL document CHEMBL4196115 (ACS Med Chem Lett, 2018).
Converted amounts (≈) assume the structure as drawn.

What was measured:
[1] = molecular target: T1, Muscarinic acetylcholine receptor M1 (Homo sapiens) (UniProt P11229); test: Positive allosteric modulation of human muscarinic acetylcholine receptor M1 expressed in CHO cells assessed as increase in acetylcholine-induced calcium mobilization pretreated for 4 mins followed by acetylcholine addition and measured after 4 mins by Fluo-4-AM dye based FLIPR assay; format: functional, cell-based
T1 sequence (whole entry): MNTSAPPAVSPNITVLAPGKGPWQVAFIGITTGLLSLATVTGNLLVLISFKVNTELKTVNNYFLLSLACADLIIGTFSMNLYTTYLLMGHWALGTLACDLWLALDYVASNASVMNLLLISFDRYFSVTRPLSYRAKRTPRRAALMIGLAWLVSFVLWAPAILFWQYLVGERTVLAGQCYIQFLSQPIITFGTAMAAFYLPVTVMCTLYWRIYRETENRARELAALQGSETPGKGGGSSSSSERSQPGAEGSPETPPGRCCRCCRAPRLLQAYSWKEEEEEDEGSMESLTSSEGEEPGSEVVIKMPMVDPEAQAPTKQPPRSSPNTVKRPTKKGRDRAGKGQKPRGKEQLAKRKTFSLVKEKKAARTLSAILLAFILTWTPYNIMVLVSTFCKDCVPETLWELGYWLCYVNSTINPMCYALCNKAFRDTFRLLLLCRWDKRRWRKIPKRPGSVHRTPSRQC

[2] = Volume of distribution at steady state in Mongrel dog at 3 mg/kg, po or 1 mg/kg, iv; format: ADME, organism-based, Canis lupus familiaris; settings: in vivo, read-out: Vdss
[3] = Oral bioavailability in rhesus monkey at 1 mg/kg; format: ADME, organism-based, Macaca mulatta; settings: in vivo
[4] = Clearance in Sprague-Dawley rat at 10 mg/kg, po or 2 mg/kg, iv; format: ADME, organism-based; settings: in vivo
[5] = Clearance in Mongrel dog at 3 mg/kg, po or 1 mg/kg, iv; format: ADME, organism-based, Canis lupus familiaris; settings: in vivo
[6] = Volume of distribution at steady state in Sprague-Dawley rat at 10 mg/kg, po or 2 mg/kg, iv; format: ADME, organism-based; settings: in vivo, read-out: Vdss
Cytochrome P450 2C9 = Cytochrome P450 2C9 (Homo sapiens, UniProt P11712); test: Competitive reversible inhibition of CYP2C9 (unknown origin); format: ADME
Sequence of Cytochrome P450 2C9 (P11712 whole entry): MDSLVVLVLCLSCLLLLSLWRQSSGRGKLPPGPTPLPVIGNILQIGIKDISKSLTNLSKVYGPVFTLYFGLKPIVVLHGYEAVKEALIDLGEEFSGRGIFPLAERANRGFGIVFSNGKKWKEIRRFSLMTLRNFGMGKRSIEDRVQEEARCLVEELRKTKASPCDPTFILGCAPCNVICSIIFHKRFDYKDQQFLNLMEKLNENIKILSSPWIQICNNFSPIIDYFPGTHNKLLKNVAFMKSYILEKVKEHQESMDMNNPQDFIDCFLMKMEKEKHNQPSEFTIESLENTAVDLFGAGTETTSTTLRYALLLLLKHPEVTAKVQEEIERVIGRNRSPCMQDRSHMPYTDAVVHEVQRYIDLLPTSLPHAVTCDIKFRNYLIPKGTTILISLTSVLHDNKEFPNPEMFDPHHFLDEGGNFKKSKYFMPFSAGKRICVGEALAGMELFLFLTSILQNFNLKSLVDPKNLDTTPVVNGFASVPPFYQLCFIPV

Hepatocyte = test: Induction of CYP3A4 mRNA expression in human hepatocytes at 0.1 to 10 uM; format: ADME, cell-based
[7] = Terminal half life in Mongrel dog at 3 mg/kg, po or 1 mg/kg, iv; format: ADME, organism-based, Canis lupus familiaris; settings: in vivo, read-out: beta t1/2 (converted)
[8] = Oral bioavailability in Sprague-Dawley rat at 10 mg/kg; format: ADME, organism-based; settings: in vivo
Cytochrome P450 3A4 = Cytochrome P450 3A4 (Homo sapiens, UniProt P08684); test: Induction of CYP3A4 activity in human hepatocytes at 0.1 to 10 uM; format: ADME, cell-based
Sequence of Cytochrome P450 3A4 (P08684 whole entry): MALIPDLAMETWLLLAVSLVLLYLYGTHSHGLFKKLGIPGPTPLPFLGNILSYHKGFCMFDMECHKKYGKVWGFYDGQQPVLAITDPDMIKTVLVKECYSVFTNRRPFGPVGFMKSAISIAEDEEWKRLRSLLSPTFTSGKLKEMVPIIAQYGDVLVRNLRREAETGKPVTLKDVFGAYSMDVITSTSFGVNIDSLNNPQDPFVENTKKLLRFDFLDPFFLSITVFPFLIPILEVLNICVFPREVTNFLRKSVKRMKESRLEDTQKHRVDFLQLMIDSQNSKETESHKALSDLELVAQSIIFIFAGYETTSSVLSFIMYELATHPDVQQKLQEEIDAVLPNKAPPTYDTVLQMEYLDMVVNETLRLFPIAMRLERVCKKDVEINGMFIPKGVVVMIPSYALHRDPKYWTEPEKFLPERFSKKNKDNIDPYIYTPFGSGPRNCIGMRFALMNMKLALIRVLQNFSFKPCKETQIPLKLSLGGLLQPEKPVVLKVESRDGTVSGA

[9] = Intrinsic clearance in human microsomes; format: ADME, Microsome
[10] = Terminal half life in rhesus monkey at 1 mg/kg, po or 0.5 mg/kg, iv; format: ADME, organism-based, Macaca mulatta; settings: in vivo, read-out: beta t1/2 (converted)
MDR1 (P-gp, ABCB1) [11] = molecular target: T2, MDR1 (P-gp, ABCB1) (Homo sapiens, UniProt P08183); test: Substrate activity at MDR1 (unknown origin) assessed as apparent permeability; format: ADME; settings: not told
T2 sequence (P08183 whole entry): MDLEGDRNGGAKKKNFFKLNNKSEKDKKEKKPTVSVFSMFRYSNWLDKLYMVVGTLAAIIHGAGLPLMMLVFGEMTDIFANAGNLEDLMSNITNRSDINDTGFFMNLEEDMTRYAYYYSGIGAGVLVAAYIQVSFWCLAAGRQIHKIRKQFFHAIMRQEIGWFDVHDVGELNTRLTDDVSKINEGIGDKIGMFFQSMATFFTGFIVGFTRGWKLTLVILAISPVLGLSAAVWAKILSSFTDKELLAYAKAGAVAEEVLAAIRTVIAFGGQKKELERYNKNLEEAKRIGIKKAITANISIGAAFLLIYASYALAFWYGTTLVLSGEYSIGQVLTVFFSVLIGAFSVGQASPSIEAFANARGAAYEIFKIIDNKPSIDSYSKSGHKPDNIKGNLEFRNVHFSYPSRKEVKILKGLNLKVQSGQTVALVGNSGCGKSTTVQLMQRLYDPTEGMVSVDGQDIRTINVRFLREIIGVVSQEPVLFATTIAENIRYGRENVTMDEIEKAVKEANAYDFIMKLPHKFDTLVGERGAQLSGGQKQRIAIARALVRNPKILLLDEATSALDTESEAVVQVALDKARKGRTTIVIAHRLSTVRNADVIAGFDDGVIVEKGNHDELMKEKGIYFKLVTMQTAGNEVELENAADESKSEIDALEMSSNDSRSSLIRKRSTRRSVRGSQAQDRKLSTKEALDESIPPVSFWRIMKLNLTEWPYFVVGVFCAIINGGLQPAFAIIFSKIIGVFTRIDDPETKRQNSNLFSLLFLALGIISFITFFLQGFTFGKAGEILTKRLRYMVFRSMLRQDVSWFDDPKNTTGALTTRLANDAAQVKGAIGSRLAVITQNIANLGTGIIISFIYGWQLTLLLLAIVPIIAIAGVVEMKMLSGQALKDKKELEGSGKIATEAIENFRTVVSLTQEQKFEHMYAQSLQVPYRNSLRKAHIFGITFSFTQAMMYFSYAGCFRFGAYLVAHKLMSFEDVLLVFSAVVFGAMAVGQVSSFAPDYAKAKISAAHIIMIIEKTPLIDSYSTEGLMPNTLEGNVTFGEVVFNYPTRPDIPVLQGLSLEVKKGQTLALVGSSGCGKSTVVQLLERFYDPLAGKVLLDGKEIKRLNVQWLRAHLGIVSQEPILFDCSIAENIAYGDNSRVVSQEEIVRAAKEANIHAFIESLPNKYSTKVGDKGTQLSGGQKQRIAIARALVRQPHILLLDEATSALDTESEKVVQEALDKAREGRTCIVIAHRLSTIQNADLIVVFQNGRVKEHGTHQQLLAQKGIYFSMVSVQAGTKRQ

[12] = Inhibition of PDE4 (unknown origin); parameters: species or system Homo sapiens
[13] = Terminal half life in Sprague-Dawley rat at 10 mg/kg, po or 2 mg/kg, iv; format: ADME, organism-based; settings: in vivo, read-out: beta t1/2 (converted)
[14] = Oral bioavailability in Mongrel dog at 3 mg/kg; format: ADME, organism-based, Canis lupus familiaris; settings: in vivo
[15] = Kinetic solubility of the compound at pH 7; format: physicochemical; settings: buffer, read-out: Kinetic_solubility
[16] = Kinetic solubility of the compound at pH 2; format: physicochemical; settings: buffer, read-out: Kinetic_solubility
[17] = Lipophilicity, log D of the compound by HPLC method; format: physicochemical
[18] = molecular target: T3, Polyunsaturated fatty acid 5-lipoxygenase (Homo sapiens, UniProt P09917); test: Inhibition of recombinant human 5-LOX using arachidonic acid as substrate measured after 5 mins by fluorescence assay
T3 sequence (P09917 whole entry): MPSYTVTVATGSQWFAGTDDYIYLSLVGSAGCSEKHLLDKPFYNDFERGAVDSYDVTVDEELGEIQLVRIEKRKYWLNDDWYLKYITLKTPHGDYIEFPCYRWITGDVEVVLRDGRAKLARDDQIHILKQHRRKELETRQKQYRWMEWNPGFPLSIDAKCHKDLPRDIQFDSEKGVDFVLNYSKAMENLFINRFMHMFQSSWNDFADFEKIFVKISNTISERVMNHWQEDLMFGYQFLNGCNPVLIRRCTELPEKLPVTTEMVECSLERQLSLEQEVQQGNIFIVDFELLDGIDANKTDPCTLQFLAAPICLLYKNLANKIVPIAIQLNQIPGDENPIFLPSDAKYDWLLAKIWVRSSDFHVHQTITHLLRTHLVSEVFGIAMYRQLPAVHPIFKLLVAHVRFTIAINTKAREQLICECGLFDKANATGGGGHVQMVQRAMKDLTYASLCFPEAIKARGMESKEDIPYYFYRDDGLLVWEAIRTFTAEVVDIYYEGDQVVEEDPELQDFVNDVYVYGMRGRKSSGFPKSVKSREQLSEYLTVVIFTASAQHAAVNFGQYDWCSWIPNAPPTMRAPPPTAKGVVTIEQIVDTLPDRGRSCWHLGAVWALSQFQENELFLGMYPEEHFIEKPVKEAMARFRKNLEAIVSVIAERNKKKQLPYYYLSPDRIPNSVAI

[19] = Clearance in rhesus monkey at 1 mg/kg, po or 0.5 mg/kg, iv; format: ADME, organism-based, Macaca mulatta; settings: in vivo
[20] = Equilibrium solubility of the compound at pH <4; format: physicochemical
[21] = Equilibrium solubility of the compound at pH 8 to 10; format: physicochemical; settings: buffer
[22] = Volume of distribution at steady state in rhesus monkey at 1 mg/kg, po or 0.5 mg/kg, iv; format: ADME, organism-based, Macaca mulatta; settings: in vivo, read-out: Vdss
[23] = molecular target: Voltage-gated inwardly rectifying potassium channel KCNH2 (Homo sapiens, UniProt Q12809)
Sequence of Voltage-gated inwardly rectifying potassium channel KCNH2 (Q12809 whole entry): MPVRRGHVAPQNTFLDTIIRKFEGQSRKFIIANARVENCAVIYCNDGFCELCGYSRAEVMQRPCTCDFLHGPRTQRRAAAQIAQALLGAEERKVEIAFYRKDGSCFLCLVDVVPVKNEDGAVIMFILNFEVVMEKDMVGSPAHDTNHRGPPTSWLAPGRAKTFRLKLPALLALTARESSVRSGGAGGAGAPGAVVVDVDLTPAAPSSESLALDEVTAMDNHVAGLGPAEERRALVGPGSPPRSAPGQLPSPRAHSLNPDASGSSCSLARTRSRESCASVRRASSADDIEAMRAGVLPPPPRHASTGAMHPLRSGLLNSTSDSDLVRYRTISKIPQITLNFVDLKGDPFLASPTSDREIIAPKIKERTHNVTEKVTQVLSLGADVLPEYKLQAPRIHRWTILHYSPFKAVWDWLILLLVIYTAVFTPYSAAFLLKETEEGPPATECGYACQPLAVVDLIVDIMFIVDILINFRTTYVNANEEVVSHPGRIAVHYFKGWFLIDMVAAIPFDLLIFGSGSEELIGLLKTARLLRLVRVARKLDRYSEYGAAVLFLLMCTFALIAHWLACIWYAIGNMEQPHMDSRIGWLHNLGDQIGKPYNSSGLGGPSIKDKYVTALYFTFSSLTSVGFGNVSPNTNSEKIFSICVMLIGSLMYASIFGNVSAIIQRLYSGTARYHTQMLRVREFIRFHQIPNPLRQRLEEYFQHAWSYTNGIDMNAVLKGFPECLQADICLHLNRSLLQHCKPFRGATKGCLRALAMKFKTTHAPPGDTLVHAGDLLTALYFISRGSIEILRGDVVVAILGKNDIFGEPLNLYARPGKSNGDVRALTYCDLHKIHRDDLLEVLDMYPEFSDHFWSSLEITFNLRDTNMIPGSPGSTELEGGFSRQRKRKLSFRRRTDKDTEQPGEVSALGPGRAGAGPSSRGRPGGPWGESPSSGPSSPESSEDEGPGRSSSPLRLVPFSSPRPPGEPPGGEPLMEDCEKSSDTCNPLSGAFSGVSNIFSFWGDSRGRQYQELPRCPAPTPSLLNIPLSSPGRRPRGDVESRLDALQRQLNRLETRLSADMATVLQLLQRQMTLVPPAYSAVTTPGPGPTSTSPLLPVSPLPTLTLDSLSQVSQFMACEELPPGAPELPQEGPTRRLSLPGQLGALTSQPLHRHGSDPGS

[24] = Ratio of total drug level in cerebrospinal fluid to unbound plasma concentration in Sprague-Dawley rat at 10 mg/kg, po; format: ADME, organism-based, CSF/Plasma; settings: in vivo
MDR1 (P-gp, ABCB1) [25] = molecular target: T2, MDR1 (P-gp, ABCB1); test: Substrate activity at MDR1 (unknown origin) assessed as efflux ratio of permeability from basolateral to apical side over apical to basolateral side; format: ADME; settings: not told
[26] = Equilibrium solubility of the compound in simulated gastric fluid using crystalline compound; format: physicochemical
[27] = Equilibrium solubility of the compound in fasted state simulated intestinal fluid using crystalline compound; format: physicochemical

For `COc1ccc(Cn2cc3c(=O)onc-3c3ccccc32)cc1`, the IP [1] was > 100 µM.

In the case of `COc1ccc(Cc2cc3c(c4ccccc24)CN([C@H]2CCCC[C@@H]2O)C3=O)cc1`, the IP [1] is reported as 0.052 µM.

`Cc1ccc(Cc2cc3c(=O)n([C@H]4CCCC[C@@H]4O)cnc3c3ccccc23)cn1` [MK-7622] showed a Vd [2] of 2.4 L/kg, a bioavailability [3] of 40% and a clearance [4] of 18.9 mL/min/kg. It also gave a clearance [5] of 4.5 mL/min/kg, a Vd [6] of 0.94 L/kg and an IC50 (Cytochrome P450 2C9) of 13.3 µM. For the same compound, the Activity (Hepatocyte) was “Not Active”, the half-life [7] was 522 min and the bioavailability [8] was 56%. The Activity (Cytochrome P450 3A4) was “Not Active”, the CLint scaled [9] was 15 mL/min/kg and the half-life [10] was 108 min. The Papp (MDR1 (P-gp, ABCB1) [11]) was 33 ×10⁻⁶ cm/s, the IC50 [12] was 2100 nM and the half-life [13] was 78 min. The bioavailability [14] was 76%, the solubility kinetic [15] was 17 µM (≈ 6.79 µg/mL) and the solubility kinetic [16] was 191 µM (≈ 76.3 µg/mL). The logD [17] was 2.6, the IC50 [18] was 4.4 µM and the clearance [19] was 7.6 mL/min/kg. The solubility thermodynamic [20] was 6000 to 9000 µg/mL (≈ 15 to 22.5 mM), the solubility thermodynamic [21] was < 1 µg/mL and the Vd [22] was 1.2 L/kg.

Work on `O=c1c2cc(Cc3cccnc3)c3ccccc3c2ncn1[C@H]1CCCC[C@@H]1O` (relative stereo) yielded an IC50 [23] of 12 µM, an IP [1] of 0.042 µM and a solubility kinetic [15] of 34 µM (≈ 13.1 µg/mL). The solubility kinetic [16] was 181 µM (≈ 69.8 µg/mL), the logD [17] was 2.4 and the Ratio [24] was 0.5.

With `O=c1c2cc(Cc3ccc(Cl)nc3)c3ccccc3c2ncn1[C@H]1CCCC[C@@H]1O` the IC50 [23] was 13 µM, the IP [1] was 0.013 to 0.015 µM and the solubility kinetic [15] was < 2 µM. The solubility kinetic [16] was < 2 µM, the logD [17] was 3.1 and the Ratio [24] was 0.9. The efflux ratio (MDR1 (P-gp, ABCB1) [25]) was 1.1.

Work on `COc1ccc(Cc2cc3c(=O)n(-c4ccccc4F)cnc3c3ccccc23)cc1` yielded an IP [1] of 0.82 µM.

For `COc1ccc(Cc2cc3c(=O)n([C@H]4CCCC[C@@H]4O)cnc3c3ccccc23)cn1`, the IC50 [23] was 6.4 µM, the IP [1] was 0.018 µM and the solubility kinetic [15] was < 3 µM. It also gave a solubility kinetic [16] of 71 µM (≈ 29.5 µg/mL), a logD [17] of 3 and a Ratio [24] of 1.

Compound `COc1ccc(Cn2cc3c(=O)[nH]nc-3c3ccccc32)cc1` has an IP [1] of 57 µM.

`COc1ccc(Cc2cc3c(=O)n([C@H]4CCCC[C@@H]4O)cnc3c3ccccc23)cc1` gave an IP [1] of 0.22 µM.

With `Cc1ccc(Cc2cc3c(=O)n([C@H]4CCCC[C@@H]4O)cnc3c3ccccc23)cn1.O=C(O)/C=C/C(=O)O` the solubility thermodynamic [26] was 2300 µg/mL and the solubility thermodynamic [27] was 40 µg/mL.

Work on `COc1ccc(Cc2cc3c(=O)n(-c4ccccc4F)ccc3c3ccccc23)cc1` yielded an IP [1] of 3.3 µM.

In the case of `COc1ccc(Cn2cc3c(=O)n(-c4ccccc4)nc-3c3ccccc32)cc1`, the IP [1] is reported as 8.9 µM.

In the case of `CSc1ccc(Cc2cc3c(=O)n([C@H]4CCCC[C@@H]4O)cnc3c3ccccc23)cn1`, the IC50 [23] is reported as 7.5 µM, the IP [1] is reported as 0.021 µM and the solubility kinetic [15] is reported as < 2 µM. The solubility kinetic [16] was 102 µM (≈ 44 µg/mL) and the logD [17] was 3.2.

`COc1ccc(Cn2cc(C(=O)O)c(=O)c3ccccc32)cc1` gave an IP [1] of 0.66 µM.

`COc1ccc(Cn2cc3c(=O)n(-c4ccccc4F)nc-3c3ccccc32)cc1` gave an IP [1] of 0.41 µM.
